Test results taken from patent US12622938B2 (priority 2020, dated 2026).
In brackets after ≈: the same amount, converted by molar mass.

Legend:
Vaccinia virus = assay: microbe, parasite or virus in culture; assay type: cell-based
[1] = tested on: Flu A (H5N1) Vietnam/1203/2004H; assay: microbe, parasite or virus in culture; assay type: cell-based
Flu B Malaysia/2506/2004 [2] = assay: Flu B Malaysia/2506/2004, Neutral Red assay, MDCK; assay type: cell-based; conditions: control compound
Flu B Malaysia/2506/2004 [3] = assay: Flu B Malaysia/2506/2004, Visual assay, MDCK; assay type: cell-based
Flu B Shanghai/361/02 [4] = assay: Flu B Shanghai/361/02, Neutral Red assay, MDCK; assay type: cell-based; conditions: control compound, read-out: CTRL IC50
Flu B Shanghai/361/02 [5] = assay: Flu B Shanghai/361/02, Visual assay, MDCK; assay type: cell-based
HFF cells = conditions: human

Nc1ccn(C[C@@H](CO)OCP(=O)(O)O)c(=O)n1 [Cidofovir]
inhibition at 0.56 µg/mL (Vaccinia virus; Orthopoxvirus vaccinia, HFF, 0.56 μg/mL, read-out: Viral Inhibition Rate): 11%
inhibition at 1.67 µg/mL (Vaccinia virus; Orthopoxvirus vaccinia, HFF, 1.67 μg/mL, read-out: Viral Inhibition Rate): 53%

C=C(CC[C@@H](C(=O)O)[C@H]1C[C@H](O)[C@@]2(C)C3=CC[C@H]4C(C)(C)[C@@H](O)CC[C@]4(C)C3=CC[C@]12C)C(C)C [Dehydrosulphurenic Acid]
Viral Inhibition Rate (Vaccinia virus; 11 μg/mL): 16%
Viral Inhibition Rate (Vaccinia virus; 33 μg/mL): 58%

C=C(CC[C@@H](C(=O)O)[C@H]1CC[C@@]2(C)C3=C(CC[C@]12C)[C@@]1(C)CC[C@H](O)C(C)(C)[C@@H]1CC3)C(C)C [Eburicoic Acid]
inhibition at 11 µg/mL (Vaccinia virus; Orthopoxvirus vaccinia, HFF, 11 μg/mL, read-out: Viral Inhibition Rate): 27%
inhibition at 33 µg/mL (Vaccinia virus; Orthopoxvirus vaccinia, HFF, 33 μg/mL, read-out: Viral Inhibition Rate): 29%
inhibition at 100 µg/mL (Vaccinia virus; Orthopoxvirus vaccinia, HFF, 100 μg/mL, read-out: Viral Inhibition Rate): 55%

NC(=O)c1ncn([C@@H]2O[C@H](CO)[C@@H](O)[C@H]2O)n1 [Ribavirin]
CTRL SI [1]: >46
IC50 ([1]; Influenza A virus, H5N1, MDCK, read-out: CTRL IC50): > 320 µg/mL
CTRL EC50 (Flu B Malaysia/2506/2004 [2]): 10 µg/mL
IC50 (Flu B Malaysia/2506/2004 [2]; read-out: CTRL IC50): > 320 µg/mL
CTRL EC50 (Flu B Malaysia/2506/2004 [3]; control compound, Flu B Malaysia/2506/2004, Visual): 3 µg/mL
IC50 (Flu B Malaysia/2506/2004 [3]; read-out: CTRL IC50): > 320 µg/mL
IC50 (Flu B Shanghai/361/02 [4]): > 320 µg/mL
CTRL SI (Flu B Shanghai/361/02 [5]; control compound, Flu B Shanghai/361/02, Visual): >160
EC50 (Flu B Shanghai/361/02 [5]; read-out: CTRL EC50): 2 µg/mL (≈ 8.19 µM)
IC50 (Flu B Shanghai/361/02 [5]; read-out: CTRL IC50): > 320 µg/mL

C=C(CC[C@@H](C(=O)O)[C@H]1C[C@H](O)[C@@]2(C)C3=C(CC[C@]12C)[C@@]1(C)CC[C@H](O)C(C)(C)[C@@H]1CC3)C(C)C [Sulphurenic acid]
Viral Inhibition Rate (Vaccinia virus; 3.7 μg/mL): 36%
Viral Inhibition Rate (Vaccinia virus; 11 μg/mL): 51%
Viral Inhibition Rate (Vaccinia virus; 33 μg/mL): 58%

CCO [ethanol]
CC50 (HFF cells): 7%
